From patent USRE50957E1, “Molecular rheostat for cofactor balance” (The Regents of the University of California, priority 2016, dated 2026)

Legend:
[1] = molecular target: G. stearothermophilus glyceraldehyde-3-phosphate dehydrogenase (GsGap, gapDH WT), wild type, SEQ ID NO:6 (Geobacillus stearothermophilus, UniProt P00362); assay: Kinetics and cofactor specificity of wild type GsGap (gapDH WT); conditions: cofactor, 50 mM tris pH 7.5, 340 nm
[2] = molecular target: G. stearothermophilus glyceraldehyde-3-phosphate dehydrogenase (GsGap) mutant mGapDH (mGap, gapDH M6), D34A/L35R/T36K relative to SEQ ID NO:6 (Geobacillus stearothermophilus, UniProt P00362, D34A/L35R/T36K); assay: Kinetics and cofactor specificity of triple mutant mGap (mGapDH); format: biochemical, G. stearothermophilus ATCC12980; conditions: 50 mM tris pH 7.5, 340 nm
Protocol: Enzyme activity and optimization. All of the enzymes used in this work were assayed. The enzymes were assayed in 50 mM tris buffer pH 7.5, 5 mM MgCl, and 5 mM KCl which mirrors the final reaction conditions. The activity of NAD(P)H producing or consuming reactions were monitored at 340 nm. The activity of ATP consuming enzymes were monitored using a coupled assay with Zwf and NADP^+ at 340 nm.
To implement the “molecular rheostat” module, GapDH enzyme was engineered that efficiently uses NADP^+. […] Although the cofactor specificity of GsGap has adjusted before by sequence-based design, the mutant only slightly preferred NADP^+ over NAD^+. To more strongly flip the cofactor specificity of GsGap the crystal structure was examined and basic residues introduced into the loop region proximate to the 2′OH of NAD′ that may help stabilize binding of a 2′ phosphate in NADP^+. A series of mutations were made altering residues D34, L35, and T36 of SEQ ID NO:6. The kinetics and specificity of the best enzyme, a D34A/L35R/T36K triple mutant (herein referred to as mGap), were obtained.

Chain of G. stearothermophilus glyceraldehyde-3-phosphate dehydrogenase (GsGap) mutant mGapDH (mGap, gapDH M6), D34A/L35R/T36K relative to SEQ ID NO:6 (P00362 whole entry D34A/L35R/T36K): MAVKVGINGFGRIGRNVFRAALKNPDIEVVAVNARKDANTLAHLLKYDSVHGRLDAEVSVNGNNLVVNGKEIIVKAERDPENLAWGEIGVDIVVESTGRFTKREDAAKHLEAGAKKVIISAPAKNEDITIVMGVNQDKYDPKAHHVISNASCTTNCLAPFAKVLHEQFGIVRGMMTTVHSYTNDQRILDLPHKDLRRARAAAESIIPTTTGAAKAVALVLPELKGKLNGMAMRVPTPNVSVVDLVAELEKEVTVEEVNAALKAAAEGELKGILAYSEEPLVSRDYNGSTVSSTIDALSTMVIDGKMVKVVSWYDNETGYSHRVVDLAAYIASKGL
Chain of G. stearothermophilus glyceraldehyde-3-phosphate dehydrogenase (GsGap, gapDH WT), wild type, SEQ ID NO:6 (P00362 whole entry): as the sequence (P00362 whole entry D34A/L35R/T36K) above, with A34D, R35L, K36T counted along it

Work on `NC(=O)c1ccc[n+]([C@@H]2O[C@H](COP(=O)([O-])OP(=O)(O)OC[C@H]3O[C@@H](n4cnc5c(N)ncnc54)[C@H](O)[C@@H]3O)[C@@H](O)[C@H]2O)c1` [NAD+, nicotinamide adenine dinucleotide] yielded a Km [1] of 1500 ± 300 µM, a kcat ([2]; cofactor varied) of 0.2 ± 0.04 µM/min/mg and a Km ([2]; cofactor) of 600 ± 400 µM.
